Test results: PMC6687188, “Novel lactate dehydrogenase inhibitors with in vivo efficacy against Cryptosporidium parvum” (PLoS Pathogens, 2019)

Biological target: recombinant CpLDH protein (Cryptosporidium parvum, UniProt Q9GT92, F198L/K295E/R251K)

| SMILES | MEAN CpLDH INHIBITION (%) |
| --- | --- |
| C=C(C)C(=O)OC1CCC2(C)C(CCC3C2CCC2(C)C(c4ccc(=O)oc4)CC4OC432)C1 (centres unmarked) [NSC267712] | -57.63% |
| CC(=O)Oc1ccc(C(c2ccc(OC(C)=O)cc2)c2ccccn2)cc1 [NSC614826] | -3.85% |
| CC(=O)OC(C)(C)/C=C/C(=O)[C@](C)(O)[C@H]1[C@H](O)C[C@@]2(C)[C@@H]3CC=C4[C@@H](C[C@H](O)C(=O)C4(C)C)[C@]3(C)C(=O)C[C@]12C [NSC49451] | -57.10% |
| C=C1C(=O)OCC2C(C(=O)O)=CC3C(C)C(C)=CC123 (centres unmarked) [NSC145150] | -64.31% |
| CN(C)C(=S)/N=c1\ss/c(=N\C(=S)N(C)C)n1-c1ccc2c(c1)OCO2 [NSC622589] | -7.95% |
| CCOC(=O)/N=C(\N)SCc1ccccc1 [NSC622684] | -0.38% |
| COc1ccc(NC(=O)C(=O)/C=C(\O)c2ccccc2)cc1 [NSC658709] | -17.00% |
| Cc1nc(Nc2ccc(Cl)c(Cl)c2)sc1C(/C=C/c1ccc2c(c1)OCO2)=N/Nc1ccc([N+](=O)[O-])cc1[N+](=O)[O-] [NSC640335] | -79.51% |
| [Cl][Pt+2][Cl].[NH-]C1CCCCC1[NH-] (centres unmarked) [NSC265459] | -11.78% |
| CN(C)CCCN1c2ccc3ccccc3c2Sc2cccc(Cl)c21 [NSC24113] | -11.52% |
| Cl.Cl.Cl.Cl.NCCCNCCCCNCCCN [NSC69852] | -11.66% |
| Oc1cc2c3c(c1)c1cc4c(cc1c[n+]3CC2)OCO4.[Cl-] [NSC338259] | -17.29% |
| S=C1Nc2cnc3ccccc3c2SC1c1ccccc1 (centres unmarked) [NSC667467] | -21.66% |
| COc1nc(C(Cl)(Cl)Cl)c(Cl)c(OC)c1Cl [NSC338720] | 0.02% |
| CC1=CC(C)(C)N=C2SC(c3ccc(N)cc3)=NN12 [NSC640624] | -5.57% |
| CN(C)C(=S)/N=c1\ssc(=S)n1Cc1ccccn1 [NSC645617] | -28.16% |
| CCOc1cccc(/C=N/N=C2\C(=O)Nc3c(Cl)cc(Cl)cc32)c1O [NSC329277] | -1.09% |
| COC(=O)C(=O)C(C(=O)C(=O)Nc1cc(C)ccc1C)c1nc2ccc(C(=O)c3ccccc3)cc2[nH]c1=O (centres unmarked) [NSC642040] | -9.38% |
| O=C1c2cccc(O)c2C(=O)c2c(O)cccc21 [NSC7210] | -48.97% |
| COc1cc(CC(=O)c2cc3c(cc2-c2ccccc2)OCO3)cc(OC)c1OC [NSC648419] | -12.60% |
| C[C@@H]1O[C@@H](O[C@@H]2C=C3CC[C@@H]4[C@H](CC[C@]5(C)[C@@H](c6ccc(=O)oc6)CC[C@]45O)[C@@]3(C)CC2)[C@H](O)[C@H](O)[C@H]1O[C@@H]1O[C@H](CO)[C@@H](O)[C@H](O)[C@H]1O [NSC7525] | -34.67% |
| CCCC/C=C/C=C/C=C/CCCCCCCC(=O)OCC(COC(=O)CCCCCCC/C=C/C1C=CC(CCCC)C(C(=O)O)C1C(=O)O)OC(=O)CCCCCCC/C=C/C=C/C=C/CCCC.OCCNCO (centres unmarked) [NSC643834] | -1.59% |
| C=C1[C@@H](C)[C@H]2[C@H](Cc3ccccc3)NC(=O)C23[C@H](OC(C)=O)/C=C/[C@@](C)(O)C[C@@H](C)C/C=C/[C@H]3[C@@H]1O (some centres unmarked) [NSC305222] | -217.96% |
| C=C(C)[C@@H]1CCc2c(O)c(O)c(=O)cc(C)c2C1 [NSC310618] | -54.97% |
| CCOC(=O)c1sc2[n+](c1C)C(=O)/C(=C/c1ccc([N+](=O)[O-])cc1)S2.[Cl-] [NSC658293] | -21.86% |
| CC1CCCC(C(=O)/C(=C/c2cccc(Cl)c2)C(=O)C(=O)O)C1 (centres unmarked) [NSC636084] | -20.56% |
| COc1ccc(/C=C/c2cc(O)cc(O[C@@H]3O[C@H](CO)[C@@H](O)[C@H](O)[C@H]3O)c2)cc1O [NSC43321] | -58.94% |

| SMILES | MEAN CpLDH INHIBITION (%) |
| --- | --- |
| CCCn1c(=O)c2ccccc2[n+]2c(-c3ccc([N+](=O)[O-])cc3)csc12.[Br-] [NSC657603] | -45.82% |
| Nc1ncnc2c([C@@H]3O[C@H](CO)[C@@H](O)[C@H]3O)[nH]nc12 [NSC102811] | -35.09% |
| O=C1N[C@H]2[C@H](O)[C@H](O)[C@@H](O)[C@H](O)[C@@H]2c2cc3c(c(O)c21)OCO3 [NSC349156] | -36.89% |
| CSCC(CO)NC(=O)/C=C/c1c(C)[nH]c(=O)[nH]c1=O (centres unmarked) [NSC233872] | -35.08% |
| CCSC(=O)N1c2ccc(OC)cc2C=CC1C#N (centres unmarked) [NSC165897] | -41.74% |
| CCC(=O)OC1CCn2c1nc1c2C(=O)C(C)=C(N2CC2)C1=O (centres unmarked) [NSC651079] | -28.42% |
| C/C=C(\CCC1NCCc2c1[nH]c1ccccc21)[Si](C)(C)C (centres unmarked) [NSC619165] | -14.52% |
| CCC1CN2CCc3cc(OC)c(OC)cc3C2CC1CC1c2cc(OC)c(OC)cc2CCN1C(=O)C(Cc1c[nH]c2ccccc12)NC(=O)OC(C)(C)C (centres unmarked) [NSC109350] | -1.18% |
| CC1(C)N=C(N)N=C(N)N1c1ccc(OCCCOc2ccccc2)c(Cl)c1.CCS(=O)(=O)O [NSC133071] | -57.79% |
| CC1(c2cccc3ccccc23)OC(=O)c2ccccc21 (centres unmarked) [NSC97703] | -3.23% |
| COC(=O)[C@@]12OC[C@]34[C@H]([C@@H](O)[C@@H]1O)[C@@]1(C)CC(=O)C(O)=C(C)[C@@H]1C[C@H]3OC(=O)[C@H](OC(=O)C=C(C)C)[C@@H]24 [NSC172924] | -39.50% |
| COc1ccc(-c2csc(=[N+]3CCCCC3)s2)cc1 [NSC302358] | 0.36% |
| NC1(C(=O)O)CCCC1 [NSC1026] | -29.26% |
| Fc1cccc(F)c1C1SCc2nc3ccccc3n21 (centres unmarked) [NSC625487] | -32.18% |
| CC(C)C1=C(O)C2=C(C(=O)C1=O)[C@@]1(C)CCCC(C)(C)[C@@H]1C[C@H]2O [NSC294577] | -16.31% |
| N#CC(c1ccccc1)N(CCCCCCN(C(=O)c1ccccc1)C(C#N)c1ccccc1)C(=O)c1ccccc1 (centres unmarked) [NSC681744] | -15.26% |
| O=C1/C(=C\c2cccs2)Oc2ccccc21 [NSC56544] | -23.78% |
| Cc1ccccc1NC(=O)C(=O)C(C#N)c1ccccc1C (centres unmarked) [NSC636132] | -58.66% |
| CN1c2c(nc(N)[nH]c2=O)NCC1CCNc1ccc(C(=O)N[C@@H](CCC(=O)[O-])C(=O)[O-])cc1.[Na+].[Na+] (some centres unmarked) [NSC139490] | -2.06% |
| CN1CCN(CCSC2Cc3cc(Cl)ccc3Sc3ccccc32)CC1 (centres unmarked) [NSC635366] | -12.08% |
| COc1cc2c(c3oc4cccc(O)c4c(=O)c13)[C@@H]1C=CO[C@@H]1O2 [NSC204985] | -20.51% |
| O=C1c2ccccc2C(=O)c2nc(-c3ccccc3)c(-c3ccccc3)nc21 [NSC629713] | -5.77% |
| O=C(Nc1cccc(C(F)(F)F)c1)C(=O)C(C(=O)c1ccc(Cl)c(Cl)c1)C1OC(=O)c2ccccc21 (centres unmarked) [NSC644794] | -17.50% |
| C=C(C)[C@@H]1CC[C@]2(C)CC[C@]3(C)[C@H](CC[C@@H]4[C@@]5(C)CC[C@H](O)C(C)(C)[C@@H]5CC[C@]43C)[C@@H]12 [NSC90487] | -42.73% |
| O=C(CC(O)(C(F)(F)F)C(F)(F)Cl)CC(O)(C(F)(F)F)C(F)(F)Cl (centres unmarked) [NSC659174] | -13.23% |
| COc1ccc(C2=Nc3ccccc3SC(C)C2)cc1 (centres unmarked) [NSC636817] | -5.00% |
